Measurements taken from US20100233093A1, “Magnetic resonance imaging contrast agent with paramagnetic-inositol phosphates complexes” (GACHON UNIVERSITY OF MEDICINE & SCIENCE INDUSTRY-ACADEMIC …, priority 2009, published 2010).
Values joined by “and” are separate entries in the source; they are usually repeats but may differ in a detail not shown here. Identical values can stand only once.

Columns and labels:
[1] = Stability constant (K) from thermodynamic parameters of ITC analysis; type: physicochemical; details: calculated from ΔG of ITC analysis
Source text: A stability constant (formation constant, binding constant) is an equilibrium constant for the formation of a complex in solution. It is a measure of the strength of the interaction between the reagents that come together to form the complex. The thermodynamics of metal ion complex formation provides much significant information. The chelate effect, below, is best explained in terms of thermodynamics. An equilibrium constant is related to the standard Gibbs free energy change for the reaction.

[2] = ITC analysis of Ca^2+ binding to phytate; details: Ca^2+ stronger than Mg^2+
[3] = ITC analysis of Gd^3+ binding to EDTA; details: higher affinity than EDTA

Row | binding affinity for Ca^2+ relative to Mg^2+ [2] [fold] | affinity for Gd^3+ relative to EDTA [3] | SMILES | Stability Constant (K) [1] [M⁻¹]
1 | – | – | O=C([O-])CN1CCN(CC(=O)[O-])CCN(CC(=O)O)CCN(CC(=O)[O-])CC1.[Gd+3] [Gd-DOTA] | 1.3e+29
2 | – | – | O=C([O-])CN(CCN(CC(=O)[O-])CC(=O)O)CCN(CC(=O)[O-])CC(=O)O.[Gd+3] [Gd-DTPA] | 1.2e+28
3 | – | – | O=C([O-])CN(CCN(CC(=O)[O-])CC(=O)[O-])CC(=O)[O-].[Gd+3] [Gd-EDTA] | 4.4e+29
4 | 100 | 10 fold and 10- to 100 fold | O=P(O)(O)OC1C(OP(=O)(O)O)C(OP(=O)(O)O)C(OP(=O)(O)O)C(OP(=O)(O)O)C1OP(=O)(O)O (centres unmarked) [phytate] | –
